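The compound was tested at five concentrations on cells cultured in 96-well plates, with a 48-hour exposure period. Definition used: TGI = concentration required for complete inhibition of growth.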 Where a SMILES comes first, the peptide text is derived from it. The star is where a group is joined. Fmoc = O=C(OCC1c2ccccc2-c2ccccc21)*; Boc = CC(C)(C)OC(=O)* A value given as a limit tells only on which side of the number the result lay.

11 compounds from PubChem BioAssay (NCI) can be followed below.

Some test systems named below: CAKI-1 renal; DU-145 prostate; HOP-62 NSCLC; K-562 leukemia; MDA-N; OVCAR-5 ovarian; RPMI-8226 leukemia; SK-MEL-2 melanoma; SNB-19 CNS; SR leukemia; A498 renal.
Assay in all cases: DTP human tumour cell line panel, 48 h

For the compound `CC(OC(=O)C(CC(=O)OC(C)(C)C)NC(=O)OC(C)(C)C)C(=O)OCc1ccccc1` (configuration not stated), the TGI in the experiment on CAKI-1 renal, in the experiment with DU-145 prostate, with HOP-62 NSCLC, in the experiment on K-562 leukemia, in the experiment on MDA-N and in the experiment on OVCAR-5 ovarian was more than 100 µM each time. The TGI with RPMI-8226 leukemia, with SK-MEL-2 melanoma, with SNB-19 CNS and in the experiment with SR leukemia was more than 100 µM in each case.

On to `C1CC[C@H]2SSC3CCCC[C@H]3SSC2C1` (some centres not stated), for which the TGI in the experiment on DU-145 prostate, in the experiment on HOP-62 NSCLC, in the experiment on K-562 leukemia, in the experiment with MDA-N, in the experiment with OVCAR-5 ovarian and in the experiment on RPMI-8226 leukemia was more than 100 µM each time. For the same compound, the TGI in the experiment with SNB-19 CNS and in the experiment on SR leukemia was more than 100 µM throughout.

In the case of `COC(=O)CCC(C)C1CCC2C3C(C[C@H](OC(C)=O)[C@]12C)[C@@]1(C)CCC2(C[C@H]1C[C@H]3OC(C)=O)OOC1(CC[C@]3(C)C4C[C@H](OC(C)=O)[C@]5(C)C(C(C)CCC(=O)OC)CCC5C4[C@H](OC(C)=O)C[C@@H]3C1)OO2` (some centres not stated), the TGI with CAKI-1 renal, with DU-145 prostate, with HOP-62 NSCLC, with K-562 leukemia, in the experiment with MDA-N and with OVCAR-5 ovarian was more than 100 µM in each case. Besides, the TGI is more than 100 µM in the experiment with RPMI-8226 leukemia, more than 100 µM in the experiment with SK-MEL-2 melanoma, more than 100 µM in the experiment on SNB-19 CNS and 99.1 µM in the experiment with SR leukemia.

`C=C(CN1CC2C[C@](C(=O)OC)(c3cc4ccccc4[nH]3)C1C(OC)C2OC)S(=O)(=O)c1ccccc1` (some centres not stated): the TGI in the experiment with CAKI-1 renal was 11.7 µM; with DU-145 prostate, 14.1 µM; in the experiment on HOP-62 NSCLC, 23.4 µM; in the experiment with K-562 leukemia it was 10.6 µM; with MDA-N, 8.94 µM; with OVCAR-5 ovarian it was 13.1 µM. The TGI in the experiment on RPMI-8226 leukemia stood at 6.06 µM; with SK-MEL-2 melanoma it was 12.3 µM; in the experiment on SNB-19 CNS it was 24.3 µM; with SR leukemia, 5.91 µM.

Regarding `CC(C)(CCCCC(C)(C)[N+](C)(C)C)[N+](C)(C)C`, the TGI with HOP-62 NSCLC, in the experiment on K-562 leukemia, in the experiment on MDA-N, in the experiment with OVCAR-5 ovarian, in the experiment on RPMI-8226 leukemia and with SNB-19 CNS was more than 100 µM in each case. In the experiment on SR leukemia, the TGI was more than 100 µM.

Consider `CC(C)(C)OC(=O)NCCCCC(NC(=O)C(Cc1c[nH]c2ccccc12)NC(=O)OCC1c2ccccc2-c2ccccc21)C(=O)N1CCCC1C(=O)NCC(N)=O` (configuration not stated) (Fmoc-WK(Boc)PG-NH2; configuration not given here), for which the TGI with CAKI-1 renal, in the experiment on DU-145 prostate, in the experiment with HOP-62 NSCLC, in the experiment with K-562 leukemia, in the experiment on MDA-N and in the experiment on OVCAR-5 ovarian was more than 100 µM in each case. Besides, the TGI in the experiment with RPMI-8226 leukemia, with SK-MEL-2 melanoma, in the experiment on SNB-19 CNS and with SR leukemia was more than 100 µM in each case.

Consider `CN1CN(c2ccccc2)C2(CCN(CCC3COc4ccccc4O3)CC2)C1=O` (configuration not stated), for which the TGI in the experiment with CAKI-1 renal is 77.5 µM; in the experiment with DU-145 prostate, more than 100 µM; with K-562 leukemia, 44.9 µM; in the experiment on MDA-N, 53.1 µM; in the experiment on OVCAR-5 ovarian it was 45.9 µM; in the experiment with RPMI-8226 leukemia, 42.7 µM. Besides, the TGI in the experiment with SNB-19 CNS came out at 70.8 µM; with SR leukemia it was 71.6 µM.

With `CCOC(=O)C(C(=S)SC)c1nn2c(=O)cc(C)nc2s1` (configuration not stated), the TGI with CAKI-1 renal was found to be 37.3 µM; in the experiment on DU-145 prostate it was 32.8 µM; with HOP-62 NSCLC it was 42.7 µM; in the experiment on K-562 leukemia, 34.9 µM; in the experiment with MDA-N, 29.8 µM; in the experiment on OVCAR-5 ovarian, 38.7 µM. Besides, the TGI stood at 48.7 µM in the experiment on RPMI-8226 leukemia, 41.5 µM in the experiment with SK-MEL-2 melanoma, 43.7 µM in the experiment with SNB-19 CNS and 47.1 µM with SR leukemia.

`O=C(CCCl)NNC1=NCCCN1`: the TGI in the experiment on A498 renal, in the experiment with DU-145 prostate, in the experiment with HOP-62 NSCLC, in the experiment with K-562 leukemia, in the experiment on MDA-N and in the experiment on OVCAR-5 ovarian was more than 100 µM throughout. Further, the TGI with RPMI-8226 leukemia, in the experiment on SK-MEL-2 melanoma, with SNB-19 CNS and in the experiment with SR leukemia was more than 100 µM in each case.

For `CC(=O)Nc1nnc(S(C)(=O)=O)s1`, the TGI in the experiment on A498 renal, in the experiment on DU-145 prostate, in the experiment with HOP-62 NSCLC, in the experiment on K-562 leukemia, in the experiment on MDA-N and in the experiment with OVCAR-5 ovarian was more than 100 µM in each case. The concentration for total growth inhibition (TGI) in the experiment on RPMI-8226 leukemia, with SNB-19 CNS and in the experiment with SR leukemia was more than 100 µM in each case.

For the compound `CSc1ccc(/C=C2\N=C(c3ccccc3)N(c3nc4cc(C)c(C)cc4s3)C2=O)cc1`, the TGI in the experiment with CAKI-1 renal is more than 100 µM; in the experiment with DU-145 prostate it was more than 100 µM; with HOP-62 NSCLC, 59.4 µM; in the experiment on K-562 leukemia, more than 100 µM; in the experiment with MDA-N, 33.3 µM; with OVCAR-5 ovarian, 67.9 µM. Besides, the total growth inhibition concentration (TGI) is more than 100 µM in the experiment with RPMI-8226 leukemia, 34.1 µM in the experiment on SK-MEL-2 melanoma, 83.9 µM with SNB-19 CNS and 54.2 µM in the experiment on SR leukemia.
